System: translocation of fibrillar adhesion in GFP-tensin transfected HFF cells
Assay: Correlation analysis of fibrillar adhesion dynamics in time-lapse movies of GFP-tensin transfected cells treated with acto-myosin inhibitors
Format: cell-based
Conditions: for duration till maximum respond after addition / translocation of fibrillar adhesion following addition: 2 mM Lat-A, 150 mM H-7 or 100 mM ML-7; for correlation between sequential frames following addition of inhibitor: Eq. 1, 2 mM Lat-A, 150 mM H-7 or 100 mM ML-7, before treatment <0.65
Experimental: HFF cells were analyzed by time-lapse fluorescence recording starting 24 hours after transfection with GFP-tensin as described (10). During the recording different inhibitors of acto-myosin contractility were added ([…]) at the time point indicated by the first arrow, and washed out at the time point indicated by the second arrow. In each digital movie, a constant square frame (I) of […] containing only fibrillar adhesions without focal contacts was acquired as a function of time. Correlation was calculated between pairs of subsequent time points (It and It+1) for the duration of the movie. Correlation between It and It+1 was calculated (according to Eq. 1, where N=It and M=It+1). The graphs present this correlation as a function of time (t); and
The basic idea of this novel approach is that correlation is a quantitative measure of image similarity. Correlation is defined as the normalized pixel-by-pixel multiplication of two normalized images M and N (Eq. 1), and it is higher when the similarity between the two images is higher. Thus, if, and only if, N and M are identical images the correlation gets its maximum value of 1. When N equals −M (inverted images) the correlation reaches its minimum value, −1, and when N and M are totally unrelated images the correlation approaches zero. The below correlation equation (Eq. 1) can be extended to evaluate the similarity of two images which, are displaced with respect to each other (Eq. 2). To illustrate how this can be applied to characterize dynamic processes consider 4 cases in which N and M are two images of the same field taken at two close time points: (i) a correlation which equals 1 indicates a lack of any change in the field (since N equals M); (ii) if all the objects in the field are translated one pixel along the x axis, such that Mx,y=Nx+1,y, the correlation defined above will be less then 1. Yet when the objects are bigger then one pixel they will overlap in the two images, and thus the value of the correlation between N and M will be still close to 1; (iii) if the objects are translated 100 pixels, such that Mx,y=Nx+100,y with no overlap between the objects in the two images, the correlation will be low. However there is a single translational vector ([a^max,b^max], Eq. 4), i.e. (1,0) for case (ii) and (100,0) for case (iii), that will bring the two images to perfectly overlap, Mx,y=Nx+a,y+b, and will raise the more general translated correlation (C, Eq. 2) back to its maximal value of unity; (iv) if the objects moved 100 pixels, but different ones moved to different directions, the correlation will be low for all possible translational vectors, since the two images never overlap.
Inhibitors of acto-myosin contractility, like latrunculin-A (Lat-A), H-7 and ML-7, block the translocation of fibrilar adhesion (Zamir et al., Nature Cell Biology, Vol. 2, 191-196, 2000). In order to follow the kinetics of this effect a correlation analysis according to Eq. 1 was applied on digital movies of GFP-tensin transfected cells before, during and after treatments with inhibitors. Before treatment, fibrilar adhesions were highly dynamic and thus the correlation between two sequential frames was low (<0.65, FIG. 2). Following the addition of Lat-A, H-7 or ML-7 the translocation of fibrillar adhesion was inhibited, leading to higher correlation between sequential frames (˜0.78, 0.81 and 0.92 for Lat-A, H-7 and ML-7, respectively). The duration till maximum respond to Lat-A was relatively short (˜8 minutes after addition), while the respond to H-7 and ML-7 were more gradual (˜50 minutes after H-7 addition and ˜80 minutes after ML-7 addition). After washing-out the drugs, the translocation of fibrillar adhesion recovered and the correlation dropped back to lower levels. The recovery from H-7 was relatively fast (<20 minutes) while recovery from Lat-A and ML-7 took relatively long time (>80 minutes).

CC1CNCCN1S(=O)(=O)c1cccc2cnccc12 (stereo not shown) [H-7]
duration till maximum respond after addition: ~50 min
translocation of fibrillar adhesion following addition: inhibited
correlation between sequential frames following addition of inhibitor: ~0.81
recovery of fibrillar adhesion translocation after washing-out the drug (after wash-out): < 20 min

C/C1=C/C(=O)O[C@@H]2C[C@@H](CC[C@H](C)/C=C\C=C\CC1)O[C@@](O)([C@@H]1CSC(=O)N1)C2 [Lat-A, latrunculin-A]
duration till maximum respond after addition: ~8 min
translocation of fibrillar adhesion following addition: inhibited
correlation between sequential frames following addition of inhibitor: ~0.78

O=S(=O)(c1cccc2c(I)cccc12)N1CCCNCC1 [ML-7]
duration till maximum respond after addition: ~80 min
translocation of fibrillar adhesion following addition: inhibited
correlation between sequential frames following addition of inhibitor: ~0.92
